In general, inhibition refers to the change of the read-out against control, counted positive when it falls. The low end stands for a response near the control, the high end for a response far below the control. The IC50 is the concentration that inhibits the measured activity by half.

Each structure is given as a SMILES string. ≈ marks a conversion by molar mass, not a printed value.

One experiment has as its system Pseudomonas aeruginosa. Put plainly: Inhibition of N-terminal His-tagged Pseudomonas aeruginosa RmIA expressed in Escherichia coli BL21 (lambdaDE3) at 10 uM using dTTP and G-1-P as substrates incubated for 30 mins by Biomol green reagent based assay relative to control.
The subject of experiment [1] is Mycobacterium tuberculosis. Put plainly: Antimycobacterial activity against Mycobacterium tuberculosis assessed as inhibition of bacterial growth. The class given is functional. The conditions noted are these: read-out: MIC100.
Experiment [2] can be described thus: Inhibition of N-terminal His-tagged Pseudomonas aeruginosa RmIA expressed in Escherichia coli BL21 (lambdaDE3) using dTTP and G-1-P as substrates incubated for 30 mins by Biomol green reagent based assay.

Consider `CN(c1c(NCCCCN)n(Cc2ccc(Br)cc2)c(=O)[nH]c1=O)S(=O)(=O)c1ccccc1`, for which, in the experiment on Pseudomonas aeruginosa, the inhibition is 100%.

`CNCCCNc1c(N(C)S(=O)(=O)c2ccccc2)c(=O)[nH]c(=O)n1Cc1ccc(Br)cc1`: in the experiment with Pseudomonas aeruginosa, the inhibition amounted to 100%.

In the experiment with Pseudomonas aeruginosa, `CN(c1c(NCCCn2cc(CN)nn2)n(Cc2ccccc2)c(=O)[nH]c1=O)S(=O)(=O)c1ccccc1` showed an inhibition of 100%.

For `CN(c1c(NCCCCCN)n(Cc2ccc(Br)cc2)c(=O)[nH]c1=O)S(=O)(=O)c1ccccc1`, the inhibition in the experiment on Pseudomonas aeruginosa was found to be 100%.

In the case of `CN(c1c(N)n(Cc2ccccc2)c(=O)[nH]c1=O)S(=O)(=O)c1ccccc1`, in experiment [1], the MIC was found to be 100 µg/mL (≈ 259 µM).

In experiment [2], `CNCCNc1c(N(C)S(=O)(=O)c2ccccc2)c(=O)[nH]c(=O)n1Cc1ccc(Br)cc1` registered an IC50 of 96 nM.

On to `CN(c1c(N)n(Cc2ccc(Br)cc2)c(=O)[nH]c1=O)S(=O)(=O)c1ccccc1`, for which, in the experiment with Pseudomonas aeruginosa, the inhibition stood at 100%.

Values taken from ChEMBL document CHEMBL5053537, “Next generation Glucose-1-phosphate thymidylyltransferase (RmlA) inhibitors: An extended SAR study to direct future design” (Bioorg Med Chem, 2021).
